# Measurements: patent publication US9028874B2, “Antioxidant nanosphere comprising [1,2]-dithiolane moieties” (Cedars-Sinai Medical Center, priority 2008, dated 2015)
# How the values were obtained:
# [1] = Nanosphere formation by spontaneous emulsification; hydrodynamic size and polydispersity by dynamic light scattering; type: physicochemical; settings: 25 mg/5 mL acetone into 10 mL 0.25% w/v Pluronic F-68 in water
# Method: Nanospheres were prepared according to the method using spontaneous emulsification with slight modification. Briefly, 25 mg of the compounds were dissolved in acetone (5 mL). The organic solution was poured under moderate stirring on a magnetic plate into an aqueous phase prepared by dissolving 25 mg of Pluronic F68 in 10 mL bidistilled water (0.25% w/v). Following 15 min of magnetic stirring, the acetone was removed under reduced pressure at room temperature. The nanospheres were filtered through 0.45 μm hydrophilic syringe filter and stored at 4° C. The hydrodynamic size measurement and size distribution of the nanospheres was performed by the dynamic light scattering (DLS) using a Coulter N4-Plus Submicron Particle Sizer (Coulter Corporation, Miami, Fla.). The nanospheres were purified by centrifuging three times at 20,000×g for 30 min at 25° C. and resuspending each time in the same volume of deionized water. […] The size was assessed on three separate batches of the nanosphere formulation. The recovery yield was calculated as follows: RY (%)=(mass of the mALA-containing compounds recovered/mass of the mALA-containing compounds used in formulation)×100%. […] The solution was analyzed for the compounds by RP-HPLC. Separation was performed using 80% acetonitrile (0.1% trifluoroacetic acid, TFA) as mobile phase and the eluent was monitored using UV detector at 330 nm. […]
# [2] = DPPH radical scavenging assay, Method B (fine dispersed DPPH suspension); type: biochemical; settings: Method B: DPPH suspension in water
# Method: Method B: 400 μL of 1.25 mM DPPH solution in ethanol was added to 9500 μL of water to give a fine dispersed DPPH suspension. Pictures were taken as described above.
# In the method B (FIG. 6a), 400 μL of 1.25 mM DPPH solution in ethanol was added to 9500 μL of water to give a fine dispersed DPPH suspension with the particle size of 164±26 nm (polydispersity index 0.03).
# [3] = DPPH radical scavenging assay, Method A (dissolved DPPH); type: biochemical; settings: Method A: 50 μM DPPH dissolved in ethanol/water; violet to pale yellow
# Method: Method A: 5 mL of 100 μM DPPH solution in ethanol was mixed with 5 mL of water, resulting in a final concentration of 50 μM for DPPH. Trolox and ascorbic acid were dissolved in 100 mM sodium phosphate buffer (pH 7.5, 2.5 mM). The concentration of α-tocopherol in nanospheres was adjusted to 2.5 mM. The predetermined amount of Trolox, ascorbic acid solution and nanospheres were added to the DPPH solution using Hamilton syringe carefully to the bottom of 20 mL glass bottle to minimize the premature mixing. After gentle mixing, pictures were taken using digital camera (50000 pxitex).
# The antioxidant capability of the nanospheres was assessed by the scavenging activity of DPPH free radical. The DPPH radical scavenging assay is often used as a model for the measurement of lipid radial scavenging activity of antioxidant compounds. […] The DPPH radical scavenging assay is usually performed in a 50:50 mixture of water and organic solvents, commonly ethanol or dimethyl suloxide, in which the DPPH radical is completely dissolved. In this condition (Method A), the violet color of DPPH radical solution converted instantaneously to the pale yellow color, which is indicative of an instantaneous DPPH radical scavenging by the nanospheres (FIG. 6a, Method A).
Structure (SMILES),formation of stable nanospheres [1],DPPH radical scavenging (color change) [2],DPPH radical scavenging (color change) [3]
"O=C(CCCCC1CCSS1)OCCOCCOCCOCCOC(=O)CCCCC1CCSS1 (stereo not drawn) [Compound 4a, 2×Lipoic Acid/Tetraethylene Glycol]",failure,–,–
"O=C(CCCCC1CCSS1)OCCN1CCN(CCOC(=O)CCCCC2CCSS2)CC1 (stereo not drawn) [Compound 7a, 2×Lipoic acid/1,4-Bis(2-hydroxyethyl)-piperazine]",failure,–,–
Cc1c(C)c2c(c(C)c1O)CCC(C)(C(=O)O)O2 (stereo not drawn) [Trolox],–,much less color changes,complete and occurred instantaneously
O=C1O[C@H]([C@@H](O)CO)C(O)=C1O [ascorbic acid],–,much less color changes,complete and occurred instantaneously
